pEC50, pIC50, pKd: −log10 of the molar value. Like-named read-outs stand apart in the source and are kept apart here. Each block holds one molecule with its values, some of them ahead of it.
Tests used:
[1] = target: T1, human calcium channel alpha1G-c (Homo sapiens, UniProt O43497); experiment: two-electrode voltage clamp of Xenopus oocytes expressing human calcium channel alpha1G-c; type: cell-based; details: for block of peak human alpha1G-c currents / effect on peak human alpha1G-c currents: 100 μM; for block of peak current: 200 μM, clamped at −100 mV between test pulses
T1 construct: first reported cloning of a full length DNA molecule encoding the; expressed in transfected cells; host or cells: Xenopus laevis oocytes injected with cRNA transcribed from pGEM HE
T1 sequence (O43497 1-2273 isoform O43497-6): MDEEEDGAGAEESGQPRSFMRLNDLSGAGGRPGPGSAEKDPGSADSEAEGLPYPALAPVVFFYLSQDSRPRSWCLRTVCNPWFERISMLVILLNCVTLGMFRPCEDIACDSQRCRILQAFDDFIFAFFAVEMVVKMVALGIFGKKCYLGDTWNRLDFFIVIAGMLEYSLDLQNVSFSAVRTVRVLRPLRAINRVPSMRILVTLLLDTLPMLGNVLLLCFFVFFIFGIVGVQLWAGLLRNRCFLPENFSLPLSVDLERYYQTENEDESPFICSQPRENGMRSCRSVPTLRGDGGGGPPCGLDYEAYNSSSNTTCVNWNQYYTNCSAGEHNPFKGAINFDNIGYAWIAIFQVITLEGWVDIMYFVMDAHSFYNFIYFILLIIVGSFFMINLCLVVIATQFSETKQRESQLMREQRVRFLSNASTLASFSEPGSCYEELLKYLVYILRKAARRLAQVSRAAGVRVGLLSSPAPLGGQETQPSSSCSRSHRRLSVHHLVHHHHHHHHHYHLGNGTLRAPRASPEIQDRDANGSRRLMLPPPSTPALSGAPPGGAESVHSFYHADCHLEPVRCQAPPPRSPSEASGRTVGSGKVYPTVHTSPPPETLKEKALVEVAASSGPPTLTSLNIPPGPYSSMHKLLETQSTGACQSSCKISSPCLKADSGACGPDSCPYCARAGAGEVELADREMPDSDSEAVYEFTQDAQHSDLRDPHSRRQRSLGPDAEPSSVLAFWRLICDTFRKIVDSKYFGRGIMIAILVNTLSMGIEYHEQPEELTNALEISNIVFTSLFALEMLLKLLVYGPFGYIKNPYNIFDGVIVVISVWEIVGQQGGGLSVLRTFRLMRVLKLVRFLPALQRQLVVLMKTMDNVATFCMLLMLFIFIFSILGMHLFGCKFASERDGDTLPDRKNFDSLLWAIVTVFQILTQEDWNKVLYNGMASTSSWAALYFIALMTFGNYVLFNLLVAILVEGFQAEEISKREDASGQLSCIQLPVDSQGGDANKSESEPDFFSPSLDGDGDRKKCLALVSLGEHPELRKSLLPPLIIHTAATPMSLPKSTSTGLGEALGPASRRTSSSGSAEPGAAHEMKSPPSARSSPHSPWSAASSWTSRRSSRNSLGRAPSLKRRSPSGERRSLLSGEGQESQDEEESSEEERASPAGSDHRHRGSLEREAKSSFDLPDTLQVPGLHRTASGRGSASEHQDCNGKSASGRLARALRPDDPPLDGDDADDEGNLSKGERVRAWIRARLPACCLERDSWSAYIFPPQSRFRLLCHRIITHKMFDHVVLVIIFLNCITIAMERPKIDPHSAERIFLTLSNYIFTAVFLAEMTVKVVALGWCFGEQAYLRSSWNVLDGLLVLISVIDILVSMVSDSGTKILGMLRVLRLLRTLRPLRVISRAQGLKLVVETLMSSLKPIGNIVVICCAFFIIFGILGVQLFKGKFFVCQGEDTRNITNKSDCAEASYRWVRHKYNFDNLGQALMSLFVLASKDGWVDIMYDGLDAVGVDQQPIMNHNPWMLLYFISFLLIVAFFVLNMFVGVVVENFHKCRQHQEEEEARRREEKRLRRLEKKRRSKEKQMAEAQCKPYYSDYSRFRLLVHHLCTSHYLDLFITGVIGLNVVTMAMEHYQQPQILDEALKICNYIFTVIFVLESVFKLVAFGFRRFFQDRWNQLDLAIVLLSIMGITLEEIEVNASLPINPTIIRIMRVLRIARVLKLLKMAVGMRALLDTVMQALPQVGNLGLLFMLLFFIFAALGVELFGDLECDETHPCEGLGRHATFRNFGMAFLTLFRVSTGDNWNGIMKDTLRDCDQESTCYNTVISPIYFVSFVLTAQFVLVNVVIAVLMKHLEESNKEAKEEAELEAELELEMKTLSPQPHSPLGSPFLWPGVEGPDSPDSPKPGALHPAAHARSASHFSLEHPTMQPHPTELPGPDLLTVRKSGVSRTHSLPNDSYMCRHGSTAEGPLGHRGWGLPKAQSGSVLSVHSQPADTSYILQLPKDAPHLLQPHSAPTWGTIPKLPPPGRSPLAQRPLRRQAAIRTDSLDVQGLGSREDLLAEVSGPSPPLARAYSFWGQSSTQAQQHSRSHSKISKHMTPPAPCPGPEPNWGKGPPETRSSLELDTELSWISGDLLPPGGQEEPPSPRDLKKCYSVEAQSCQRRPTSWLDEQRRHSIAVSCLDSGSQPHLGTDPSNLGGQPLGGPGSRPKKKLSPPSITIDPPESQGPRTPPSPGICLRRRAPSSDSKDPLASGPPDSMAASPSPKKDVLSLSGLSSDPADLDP
Protocol: Xenopus laevis oocytes were prepared and injected using standard methods previously described and known in the art (Fraser, S. P. et al. (1993)). Ovarian lobes from adult female Xenopus laevis (Nasco, Fort Atkinson, Wis.) were teased apart, rinsed several times in nominally Ca-free saline containing: 82.5 mM NaCl, 2.5 mM KCl, 1 mM MgCl2, 5 mM HEPES, adjusted to pH 7.0 with NaOH (OR-2), and gently shaken in OR-2 containing 0.2% collagenase Type 1 (ICN Biomedicals, Aurora, Ohio) for 2-5 hours. When approximately 50% of the follicular layers were removed, Stage V and VI oocytes were selected and rinsed in media consisting of 75% OR-2 and 25% ND-96. The ND-96 contained: 100 mM NaCl, 2 mM KCl, 1 mM MgCl2, 1.8 mM CaCl2, 5 mM HEPES, 2.5 mM Na pyruvate, gentamicin (50 ug/ml), adjusted to pH 7.0 with NaOH. […] The synthesized cRNA was precipitated with ammonium acetate and isopropanol, and resuspended in 50 μl nuclease-free water. cRNA was quantified using formaldehyde gels (1% agarose, 1×MOPS , 3% formaldehyde) against RNA markers (Gibco BRL, 0.24-9.5 Kb).
Oocytes were injected with 50 nl of the human calcium channel alpha1G-c cRNA (about 600 ng). Control oocytes were injected with 50 nl of water. Oocytes were incubated in ND-96 before analysis for expression of the human calcium channel alpha1G-c. Incubations and collagenase digestion were carried out at room temperature. Injected oocytes were maintained in 48 well cell culture clusters (Costar; Cambridge, Mass.) at 18° C. Whole cell agonist-induced currents were measured 3-6 days after injection with a conventional two-electrode voltage clamp (GeneClamp500, Axon Instruments, Foster City, Calif.) using standard methods previously described and known in the art (Dascal, N. (1987)). The microelectrodes were filled with 3 M KCl, which had resistances of 1 and 2 MΩ. Cells were continuously perfused with ND96 at 2-5 mi/min at room temperature unless indicated. In some experiments, cells were bathed in a 40 mM Ba saline containing (in mM): 40 BaCl2, 2 KCl, 36 TEA-Cl, 5 4-AP and 5 HEPES, pH 7.6. Membrane voltage was clamped at −100 mV unless indicated.
Oocytes were bathed in ND96,

mouse alpha1G = details: cited from earlier work
human alpha1H = target: T2, human alpha1H (Homo sapiens, UniProt O95180); details: cited from earlier work; for pIC50: expressed in oocytes
T2 construct: host or cells: oocytes
T2 sequence (O95180 whole entry): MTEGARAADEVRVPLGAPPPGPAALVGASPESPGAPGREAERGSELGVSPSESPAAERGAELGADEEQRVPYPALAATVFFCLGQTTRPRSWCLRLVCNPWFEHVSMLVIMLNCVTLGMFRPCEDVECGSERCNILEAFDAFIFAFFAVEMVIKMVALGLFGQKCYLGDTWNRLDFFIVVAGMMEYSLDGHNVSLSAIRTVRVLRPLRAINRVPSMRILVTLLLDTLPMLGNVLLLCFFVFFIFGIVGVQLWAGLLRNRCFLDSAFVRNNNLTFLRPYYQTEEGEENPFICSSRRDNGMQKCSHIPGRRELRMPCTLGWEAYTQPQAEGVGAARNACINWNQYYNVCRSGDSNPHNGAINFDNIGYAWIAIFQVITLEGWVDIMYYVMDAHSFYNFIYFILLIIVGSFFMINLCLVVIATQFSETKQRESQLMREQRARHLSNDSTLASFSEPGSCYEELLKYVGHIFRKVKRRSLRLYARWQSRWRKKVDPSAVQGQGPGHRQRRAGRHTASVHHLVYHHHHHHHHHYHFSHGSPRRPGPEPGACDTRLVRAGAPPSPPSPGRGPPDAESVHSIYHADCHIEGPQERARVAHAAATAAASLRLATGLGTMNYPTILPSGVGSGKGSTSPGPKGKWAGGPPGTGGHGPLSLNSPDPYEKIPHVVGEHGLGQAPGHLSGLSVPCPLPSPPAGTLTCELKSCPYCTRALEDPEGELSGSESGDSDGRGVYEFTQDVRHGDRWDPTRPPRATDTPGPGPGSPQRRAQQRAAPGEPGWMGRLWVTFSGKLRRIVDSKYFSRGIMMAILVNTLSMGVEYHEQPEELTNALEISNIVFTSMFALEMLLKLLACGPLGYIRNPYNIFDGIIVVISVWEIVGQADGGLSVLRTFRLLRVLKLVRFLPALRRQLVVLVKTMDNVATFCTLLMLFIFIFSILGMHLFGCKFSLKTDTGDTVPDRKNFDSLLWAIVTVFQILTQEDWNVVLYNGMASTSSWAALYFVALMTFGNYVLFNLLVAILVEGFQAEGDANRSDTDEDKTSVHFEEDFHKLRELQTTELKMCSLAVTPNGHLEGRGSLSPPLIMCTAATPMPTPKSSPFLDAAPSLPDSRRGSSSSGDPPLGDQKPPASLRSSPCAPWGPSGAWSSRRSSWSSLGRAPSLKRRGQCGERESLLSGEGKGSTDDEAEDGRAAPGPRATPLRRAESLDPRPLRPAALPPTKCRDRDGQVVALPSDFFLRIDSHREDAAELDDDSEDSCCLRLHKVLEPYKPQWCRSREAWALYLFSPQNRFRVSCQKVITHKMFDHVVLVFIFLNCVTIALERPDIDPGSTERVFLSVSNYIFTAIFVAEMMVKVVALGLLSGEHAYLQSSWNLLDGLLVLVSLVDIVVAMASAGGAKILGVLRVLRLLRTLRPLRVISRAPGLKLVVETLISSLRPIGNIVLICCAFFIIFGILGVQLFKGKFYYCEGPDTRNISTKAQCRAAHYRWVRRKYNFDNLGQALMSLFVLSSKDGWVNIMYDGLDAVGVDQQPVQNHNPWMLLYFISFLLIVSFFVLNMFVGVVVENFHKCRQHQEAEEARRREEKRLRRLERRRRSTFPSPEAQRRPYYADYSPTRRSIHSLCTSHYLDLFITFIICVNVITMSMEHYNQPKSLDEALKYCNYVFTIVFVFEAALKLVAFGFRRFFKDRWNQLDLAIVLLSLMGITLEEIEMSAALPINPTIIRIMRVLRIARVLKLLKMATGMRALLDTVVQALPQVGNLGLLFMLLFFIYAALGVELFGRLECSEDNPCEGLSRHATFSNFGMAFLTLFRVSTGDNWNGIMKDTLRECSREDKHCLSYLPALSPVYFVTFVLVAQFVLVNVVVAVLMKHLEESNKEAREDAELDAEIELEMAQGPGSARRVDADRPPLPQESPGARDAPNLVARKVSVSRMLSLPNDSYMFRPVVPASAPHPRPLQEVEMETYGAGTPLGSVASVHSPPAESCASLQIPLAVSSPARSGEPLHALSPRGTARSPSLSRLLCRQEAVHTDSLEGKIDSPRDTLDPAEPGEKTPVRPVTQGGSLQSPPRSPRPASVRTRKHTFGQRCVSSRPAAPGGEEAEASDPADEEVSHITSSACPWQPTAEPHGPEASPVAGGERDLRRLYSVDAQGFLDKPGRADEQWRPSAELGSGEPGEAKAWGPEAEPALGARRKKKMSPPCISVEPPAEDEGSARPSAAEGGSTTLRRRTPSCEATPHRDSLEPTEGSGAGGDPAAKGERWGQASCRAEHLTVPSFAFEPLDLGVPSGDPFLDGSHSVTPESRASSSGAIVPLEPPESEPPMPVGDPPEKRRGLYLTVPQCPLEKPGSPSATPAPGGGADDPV

T-type calcium channels = details: range over cell types; read-out: EC50's depending on the cell type; cited from earlier work
L-type current = details: neurons from one-day-old rats; cited from earlier work
[2] = system: T-type calcium channels from dorsal root ganglion neurons; details: neurons from one-day-old rats, cited from earlier work
[3] = system: LVCC in hippocampal CA3 neurons; details: 250 μM or 1 mM; cited from earlier work
[4] = system: T type currents from guinea pig or rat ventrobasal thalamic neurons; design: maximal block: dose or concentration left out as unconfirmed; details: cited from earlier work

block of peak human alpha1G-c currents [1]: 30+/−3%
Structure (SMILES): O=C(O)c1c2ccccc2cc2ccccc12 [9-AC, anthracene-9-carboxylic acid]

Structure (SMILES): [Cd+2] [Cd^2+]
block of peak human alpha1G-c currents [1]: 44+/−9%

Structure (SMILES): O=S(=O)(O)c1cc(N=C=S)ccc1C=Cc1ccc(N=C=S)cc1S(=O)(=O)O [DIDS, 4,4′-diisothiocyanatostilbene-2.2′-disulfonic acid]
block of peak human alpha1G-c currents [1]: 16+/−13% | effect on peak human alpha1G-c currents [1]: no effect

block of human alpha1G-c currents ([1]; 20 μM): 22+/−6% | block of peak human alpha1G-c currents [1]: 55+/−7% | block of peak current [1]: 89+/−7% | sensitivity of human alpha1G-c to block ([1]; expressed in oocytes): blocked halpha1G-c currents
Structure (SMILES): O=C(O)c1cc([N+](=O)[O-])ccc1NCCCc1ccccc1 [NPPB, 5-Nitro-2-(3-phenylpropylamino)benzoic acid]

Structure (SMILES): [Cl][Ni][Cl] [NiCl2]
sensitivity (mouse alpha1G; as opposed to other T-type channels): very low sensitivity | block of peak current [1]: 25+/−6% | current blocked relative to 200 μM ([1]; 1 mM, same cell): about twice the current blocked by 200 μM Ni^2+ | sensitivity of human alpha1G-c to block ([1]; expressed in oocytes): relatively insensitive | pIC50 (human alpha1H): ~5.22

Structure (SMILES): N=C(N)NC(=O)c1nc(Cl)c(N)nc1N [amiloride]
block of peak currents [1]: 23+/−4% | sensitivity of human alpha1G-c to block [1]: sensitive | pEC50 (T-type calcium channels): ≤ 4.30 | pIC50 (human alpha1H): ~4.70

reversible block of peak currents ([1]; 600 μM, −100 mV between voltage pulses, ND96 and Ba2+ salines similar): 26+/−−3% | sensitivity of human alpha1G-c to block ([1]; expressed in oocytes): sensitive
Structure (SMILES): CCC1(C)CC(=O)NC1=O (stereo not shown) [ethosuximide]
pKd (L-type current): 4.82 | maximal block [2]: 100% | pKd ([2]; read-out: Kd for T-current): 5.15 | block of human alpha1H currents (human alpha1H; 300 μM): ~7% | sensitivity (human alpha1H): insensitive | sensitivity of all components of the LVCC [3]: insensitive | effect on T-currents ([4]; in 25% of the TCs tested): no effect

Structure (SMILES): COCC(=O)O[C@]1(CCN(C)CCCc2nc3ccccc3[nH]2)CCc2cc(F)ccc2[C@@H]1C(C)C [mibefradil, (1S,2S)-2-[2-[[3-(1H-benzimidazol-2-yl)propyl]methyl-amino]ethyl]-6-fluoro-1-isopropyl-1,2,3,4-tetrahydronaphthalen-2-yl methoxyacetate]
pIC50 (mouse alpha1G; most prominent (low affinity) site): ~6.40 | maximal block [4]: ~40% | pIC50 ([4]; majority of T type currents): ~3.30

block of peak human alpha1G-c currents [1]: 0+/−2% | effect on peak human alpha1G-c currents [1]: no effect
Structure (SMILES): O=C(O)c1cccnc1Nc1cccc(C(F)(F)F)c1 [niflumic acid]

— patent US6358706B1, “DNA encoding human alpha1G-C T-Type calcium channel” (Ortho-McNeil Pharmaceutical, Inc., priority 1999, dated 2002)
